Source: patent publication US9579314B2 (priority 2015, dated 2017)
pIC50: −log10 of the molar value.

Experiments:
Human β2 adrenoceptor = Human β2 adrenoceptor (Homo sapiens, UniProt P07550); conditions: read-out: B2 binding affinity
Human M3 receptor = Human M3 receptor (Homo sapiens, UniProt P20309); conditions: read-out: M3 binding affinity
Sequence of Human M3 receptor (P20309 whole entry): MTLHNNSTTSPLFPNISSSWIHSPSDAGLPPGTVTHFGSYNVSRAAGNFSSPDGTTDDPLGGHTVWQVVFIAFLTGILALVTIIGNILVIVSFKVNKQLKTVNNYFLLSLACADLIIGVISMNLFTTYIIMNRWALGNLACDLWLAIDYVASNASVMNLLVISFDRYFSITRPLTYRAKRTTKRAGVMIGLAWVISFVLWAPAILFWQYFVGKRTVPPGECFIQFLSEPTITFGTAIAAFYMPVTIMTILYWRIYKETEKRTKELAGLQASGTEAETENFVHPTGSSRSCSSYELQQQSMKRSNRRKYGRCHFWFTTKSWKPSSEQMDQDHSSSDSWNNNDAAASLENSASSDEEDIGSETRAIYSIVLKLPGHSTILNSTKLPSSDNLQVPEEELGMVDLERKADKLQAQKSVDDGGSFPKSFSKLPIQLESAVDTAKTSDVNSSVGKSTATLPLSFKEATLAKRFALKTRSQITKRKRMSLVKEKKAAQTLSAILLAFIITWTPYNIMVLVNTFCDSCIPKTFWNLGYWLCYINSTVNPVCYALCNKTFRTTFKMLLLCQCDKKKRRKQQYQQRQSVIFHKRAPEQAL

Sequence of Human β2 adrenoceptor (P07550 whole entry): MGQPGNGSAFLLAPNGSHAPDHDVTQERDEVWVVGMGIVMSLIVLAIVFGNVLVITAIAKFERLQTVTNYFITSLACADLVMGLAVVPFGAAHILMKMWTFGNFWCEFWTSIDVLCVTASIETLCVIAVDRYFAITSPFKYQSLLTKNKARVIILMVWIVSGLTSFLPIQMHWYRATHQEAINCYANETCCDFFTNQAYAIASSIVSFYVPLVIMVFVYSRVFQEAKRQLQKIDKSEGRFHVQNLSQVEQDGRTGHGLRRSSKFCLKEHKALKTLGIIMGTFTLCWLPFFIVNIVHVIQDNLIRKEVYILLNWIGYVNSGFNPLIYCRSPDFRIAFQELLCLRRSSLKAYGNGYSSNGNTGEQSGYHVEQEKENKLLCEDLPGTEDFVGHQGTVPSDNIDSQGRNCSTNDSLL

| SMILES | pIC50 (Human β2 adrenoceptor) | pIC50 (Human M3 receptor) |
| --- | --- | --- |
| O=C(OCC1CCN(Cc2ccccc2)CC1)[C@@](O)(c1ccccc1)c1cccc(OCCCCCCNCC(O)c2ccc(O)c3[nH]c(=O)ccc23)c1 (stereo in doubt) [Compound 27, (R)-(1-benzylpiperidin-4-yl)methyl 2-hydroxy-2-(3-((6-(((R)-2-hydroxy-2-(8-hydroxy-2-oxo-1,2-dihydroquinolin-5-yl)ethyl)amino)hexyl)oxy)phenyl)-2-phenylacetate] | 8.52 to 9.52 | < 8.52 |
| O=C(OCC1CCN(Cc2ccccc2)CC1)[C@](O)(c1ccccc1)c1cccc(OCCCCCCNCC(O)c2ccc(O)c3[nH]c(=O)ccc23)c1 (stereo in doubt) [Compound 29, (S)-(1-benzylpiperidin-4-yl)methyl 2-hydroxy-2-(3-((6-(((R)-2-hydroxy-2-(8-hydroxy-2-oxo-1,2-dihydroquinolin-5-yl)ethyl)amino)hexyl)oxy)phenyl)-2-phenylacetate] | > 9.52 | > 9.52 |
| O=C(OCC1CCN(Cc2ccccc2)CC1)[C@](O)(c1ccccc1)c1cccc(OCCCCCCCCNCC(O)c2ccc(O)c3[nH]c(=O)ccc23)c1 (stereo in doubt) [Compound 30, (S)-(1-benzylpiperidin-4-yl)methyl 2-hydroxy-2-(3-((8-(((R)-2-hydroxy-2-(8-hydroxy-2-oxo-1,2-dihydroquinolin-5-yl)ethyl)amino)octyl)oxy)phenyl)-2-phenylacetate] | 8.52 to 9.52 | 8.52 to 9.52 |
| O=C(NCCc1cccc(C(O)(C(=O)OCC2CCN(Cc3ccccc3)CC2)c2ccccc2)c1)c1ccc(CNCC(O)c2ccc(O)c3[nH]c(=O)ccc23)cc1 (stereo in doubt) [Compound 39, (1-benzylpiperidin-4-yl)methyl 2-hydroxy-2-(3-(2-(4-((((R)-2-hydroxy-2-(8-hydroxy-2-oxo-1,2-dihydroquinolin-5-yl)ethyl)amino)methyl)benzamido)ethyl)phenyl)-2-phenylacetate] | > 9.52 | 8.52 to 9.52 |
| O=C(OCC1CCN(Cc2ccccc2)CC1)C(O)(c1ccccc1)c1cccc(OCCCCCNC[C@H](O)c2ccc(O)c3[nH]c(=O)ccc23)c1 (stereo partly drawn) [Compound 1, (1-Benzylpiperidin-4-yl)methyl 2-hydroxy-2-(3-((5-(((R)-2-hydroxy-2-(8-hydroxy-2-oxo-1,2-dihydroquinolin-5-yl)ethyl)amino)pentyl)oxy)phenyl)-2-phenylacetate] | > 9.52 | 8.52 to 9.52 |
| CN(C)CCOC(=O)[C@](O)(c1ccccc1)c1cccc(OCCCCCNC[C@H](O)c2ccc(O)c3[nH]c(=O)ccc23)c1 [Compound 17, (S)-2-(dimethylamino)ethyl 2-hydroxy-2-(3-((5-(((R)-2-hydroxy-2-(8-hydroxy-2-oxo-1,2-dihydroquinolin-5-yl)ethyl)amino)pentyl)oxy)phenyl)-2-phenylacetate] | 8.52 to 9.52 | – |
| CN(C)CCOC(=O)[C@@](O)(c1ccccc1)c1cccc(OCCCCCNC[C@H](O)c2ccc(O)c3[nH]c(=O)ccc23)c1 [Compound 18, (R)-2-(dimethylamino)ethyl 2-hydroxy-2-(3-((5-(((R)-2-hydroxy-2-(8-hydroxy-2-oxo-1,2-dihydroquinolin-5-yl)ethyl)amino)pentyl)oxy)phenyl)-2-phenylacetate] | > 9.52 | – |
| CN1CC[C@@H](OC(=O)[C@](O)(c2ccccc2)c2cccc(OCCCCCNC[C@H](O)c3ccc(O)c4[nH]c(=O)ccc34)c2)C1 [Compound 19] | > 9.52 | – |
| CN1CC[C@@H](OC(=O)[C@@](O)(c2ccccc2)c2cccc(OCCCCCNC[C@H](O)c3ccc(O)c4[nH]c(=O)ccc34)c2)C1 [Compound 20, (R)-(R)-1-methylpyrrolidin-3-yl 2-hydroxy-2-(3-((5-(((R)-2-hydroxy-2-(8-hydroxy-2-oxo-1,2-dihydroquinolin-5-yl)ethyl)amino)pentyl)oxy)phenyl)-2-phenylacetate] | > 9.52 | – |
| CN1CCC(OC(=O)[C@](O)(c2ccccc2)c2cccc(OCCCCCNC[C@H](O)c3ccc(O)c4[nH]c(=O)ccc34)c2)CC1 [Compound 21, (S)-1-methylpiperidin-4-yl 2-hydroxy-2-(3-((5-(((R)-2-hydroxy-2-(8-hydroxy-2-oxo-1,2-dihydroquinolin-5-yl)ethyl)amino)pentyl)oxy)phenyl)-2-phenylacetate] | > 9.52 | – |
| CN1CCC(OC(=O)[C@@](O)(c2ccccc2)c2cccc(OCCCCCNC[C@H](O)c3ccc(O)c4[nH]c(=O)ccc34)c2)CC1 [Compound 22, (R)-1-methylpiperidin-4-yl 2-hydroxy-2-(3-((5-(((R)-2-hydroxy-2-(8-hydroxy-2-oxo-1,2-dihydroquinolin-5-yl)ethyl)amino)pentyl)oxy)phenyl)-2-phenylacetate] | > 9.52 | – |
| CN1CCC[C@@H](OC(=O)[C@](O)(c2ccccc2)c2cccc(OCCCCCNC[C@H](O)c3ccc(O)c4[nH]c(=O)ccc34)c2)C1 [Compound 25] | > 9.52 | – |
| CN1CC(OC(=O)[C@](O)(c2ccccc2)c2cccc(OCCCCCNC[C@H](O)c3ccc(O)c4[nH]c(=O)ccc34)c2)C1 [Compound 26, (S)-1-methylazetidin-3-yl 2-hydroxy-2-(3-((5-(((R)-2-hydroxy-2-(8-hydroxy-2-oxo-1,2-dihydroquinolin-5-yl)ethyl)amino)pentyl)oxy)phenyl)-2-phenylacetate] | > 9.52 | – |
| CN1CC[C@@H](OC(=O)C(O)(c2ccccc2)c2cccc(C(=O)NCCCCNC[C@H](O)c3ccc(O)c4[nH]c(=O)ccc34)c2)C1 (stereo partly drawn) [Compound 49, (R)-1-methylpyrrolidin-3-yl 2-hydroxy-2-(3-((4-(((R)-2-hydroxy-2-(8-hydroxy-2-oxo-1,2-dihydroquinolin-5-yl)ethyl)amino)butyl)carbamoyl)phenyl)-2-phenylacetate diformate] | > 9.52 | – |
| O=C(NCCCOc1cccc([C@](O)(C(=O)OC2CCN(Cc3ccccc3)CC2)c2ccccc2)c1)c1ccc(CNC[C@H](O)c2ccc(O)c3[nH]c(=O)ccc23)cc1 [Compound 158, 1-Benzylpiperidin-4-yl (S)-2-hydroxy-2-(3-(3-(4-((((R)-2-hydroxy-2-(8-hydroxy-2-oxo-1,2-dihydroquinolin-5-yl)ethyl)amino)methyl)benzamido)propoxy)phenyl)-2-phenylacetate] | > 9.52 | – |
| O=C(NCCCOc1cccc([C@](O)(C(=O)OC[C@@H]2CCN(Cc3ccccc3)C2)c2ccccc2)c1)c1ccc(CNC[C@H](O)c2ccc(O)c3[nH]c(=O)ccc23)cc1 [Compound 159, ((R)-1-benzylpyrrolidin-3-yl)methyl (S)-2-hydroxy-2-(3-(3-(4-((((R)-2-hydroxy-2-(8-hydroxy-2-oxo-1,2-dihydroquinolin-5-yl)ethyl)amino)methyl)benzamido)propoxy)phenyl)-2-phenylacetate] | > 9.52 | – |
| O=C(NCCCOc1cccc([C@](O)(C(=O)OC[C@H]2CCN(Cc3ccccc3)C2)c2ccccc2)c1)c1ccc(CNC[C@H](O)c2ccc(O)c3[nH]c(=O)ccc23)cc1 [Compound 160, ((S)-1-benzylpyrrolidin-3-yl)methyl (S)-2-hydroxy-2-(3-(3-(4-((((R)-2-hydroxy-2-(8-hydroxy-2-oxo-1,2-dihydroquinolin-5-yl)ethyl)amino)methyl)benzamido)propoxy)phenyl)-2-phenylacetate] | > 9.52 | – |
| O=C(NCCCOc1cccc([C@](O)(C(=O)O[C@@H]2CCN(Cc3ccccc3)C2)c2ccccc2)c1)c1ccc(CNC[C@H](O)c2ccc(O)c3[nH]c(=O)ccc23)cc1 [Compound 163, (R)-1-benzylpyrrolidin-3-yl (S)-2-hydroxy-2-(3-(3-(4-((((R)-2-hydroxy-2-(8-hydroxy-2-oxo-1,2-dihydroquinolin-5-yl)ethyl)amino)methyl)benzamido)propoxy)phenyl)-2-phenylacetate] | > 9.52 | – |
| O=C(NCCCOc1cccc([C@](O)(C(=O)O[C@H]2CCN(Cc3ccccc3)C2)c2ccccc2)c1)c1ccc(CNC[C@H](O)c2ccc(O)c3[nH]c(=O)ccc23)cc1 [Compound 164, (S)-1-benzylpyrrolidin-3-yl (S)-2-hydroxy-2-(3-(3-(4-((((R)-2-hydroxy-2-(8-hydroxy-2-oxo-1,2-dihydroquinolin-5-yl)ethyl)amino)methyl)benzamido)propoxy)phenyl)-2-phenylacetate] | 8.52 to 9.52 | – |
| O=C(NCCCOc1cccc([C@](O)(C(=O)OC2CN(Cc3ccccc3)C2)c2ccccc2)c1)c1ccc(CNC[C@H](O)c2ccc(O)c3[nH]c(=O)ccc23)cc1 [Compound 165, 1-benzylazetidin-3-yl (S)-2-hydroxy-2-(3-(3-(4-((((R)-2-hydroxy-2-(8-hydroxy-2-oxo-1,2-dihydroquinolin-5-yl)ethyl)amino)methyl)benzamido)propoxy)phenyl)-2-phenylacetate] | > 9.52 | – |
| O=C(NCc1ccc(COc2cccc([C@](O)(C(=O)OC3CCN(Cc4ccccc4)CC3)c3ccccc3)c2)cc1)Nc1ccc(CNC[C@H](O)c2ccc(O)c3[nH]c(=O)ccc23)cc1 [Compound 166, 1-Benzylpiperidin-4-yl (S)-2-hydroxy-2-(3-((4-((3-(4-((((R)-2-hydroxy-2-(8-hydroxy-2-oxo-1,2-dihydroquinolin-5-yl)ethyl)amino)methyl)phenyl)ureido)-methyl)benzyl)oxy)phenyl)-2-phenylacetate] | 8.52 to 9.52 | – |
| COc1cc(NC(=O)NCc2ccc(COc3cccc([C@](O)(C(=O)OC4CCN(Cc5ccccc5)CC4)c4ccccc4)c3)cc2)ccc1CNC[C@H](O)c1ccc(O)c2[nH]c(=O)ccc12 [Compound 167, 1-benzylpiperidin-4-yl (S)-2-hydroxy-2-(3-((4-((3-(4-((((R)-2-hydroxy-2-(8-hydroxy-2-oxo-1,2-dihydroquinolin-5-yl)ethyl)amino)methyl)-3-methoxyphenyl)ureido)methyl)benzyl)oxy)phenyl)-2-phenylacetate] | 8.52 to 9.52 | – |
| COc1cc(CNC[C@H](O)c2ccc(O)c3[nH]c(=O)ccc23)ccc1NC(=O)NCc1ccc(COc2cccc([C@](O)(C(=O)OC3CCN(Cc4ccccc4)CC3)c3ccccc3)c2)cc1 [Compound 168, 1-benzylpiperidin-4-yl (S)-2-hydroxy-2-(3-((4-((3-(4-((((R)-2-hydroxy-2-(8-hydroxy-2-oxo-1,2-dihydroquinolin-5-yl)ethyl)amino)methyl)-2-methoxyphenyl)ureido)methyl)benzyl)oxy)phenyl)-2-phenylacetate] | 8.52 to 9.52 | – |
